# From PubChem BioAssay AID1648 (Sanford-Burnham Center for Chemical Genomics, 2009)
# Calls of active or inactive are those of the source. No rule for the calls is given here.
# Target: Serine/threonine-protein kinase mTOR (Homo sapiens) (UniProt P42345)
# Test: binders of mTOR FRB domain, biophysical, NMR (AID 1648)
# Conditions: NMR binding to FRB domain, chemical shift
# Serine/threonine-protein kinase mTOR (Homo sapiens), sequence (P42345 2015-2114): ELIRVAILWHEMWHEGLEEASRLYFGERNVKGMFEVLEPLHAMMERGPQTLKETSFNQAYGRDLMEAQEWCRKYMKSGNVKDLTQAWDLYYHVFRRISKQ
row,SMILES,Kd
1,NC(N)=NCCCCN=C(N)N,> 4 mM (inactive)
2,O=C(O)c1ccc(-c2ccccn2)s1,> 4 mM (inactive)
3,CC(C)=CC1C(CO)C1(C)C (stereo unspecified),> 4 mM (inactive)
4,CC(C)NC1CS(=O)(=O)CC1O (stereo unspecified),> 4 mM (inactive)
5,C=CCNC(=O)c1nn2cccnc2c1Cl,> 4 mM (inactive)
6,NC1=NC(=O)CC(C(=O)Nc2ccccc2)S1 (stereo unspecified),> 4 mM (inactive)
7,O=C(Nc1nncs1)C1(c2ccccc2)CCCC1,> 4 mM (inactive)
8,COC(=O)c1ccc(C(=S)N2CCOCC2)cc1,> 4 mM (inactive)
9,COc1ccc(NS(=O)(=O)c2ccc(N)cc2)nn1,> 4 mM (inactive)
10,CSCCNC(C)=O,> 4 mM (inactive)
11,CCOC(=O)c1cnc2cc(C)nn2c1C,> 4 mM (inactive)
12,Nc1ccccc1N1CCOCC1,> 4 mM (inactive)
13,NCCCCN,> 4 mM (inactive)
14,C=C(C)CSc1nc2nc(C)cc(C)n2n1,> 4 mM (inactive)
15,CCOC(=O)c1c(-c2ccncc2)csc1N,> 4 mM (inactive)
16,O=c1nc(N2CCCCC2)nc2n1CCO2,> 4 mM (inactive)
17,NCc1ccc(-n2cccn2)cc1,> 4 mM (inactive)
18,Cc1cc(C(=O)Nn2cnnc2)cs1,> 4 mM (inactive)
19,O=C1c2ccc(F)cc2C(=O)N1CO,> 4 mM (inactive)
20,Cc1onc(-c2ccccc2)c1C(=O)Nc1ccncc1,> 4 mM (inactive)
21,Cc1occc1C(=O)Nc1ccc2c(c1)CCC2,> 4 mM (inactive)
22,CC(C)n1c(-c2ccncc2)n[nH]c1=S,> 4 mM (inactive)
23,NC(=O)C1CCN(C(=O)c2ccccc2)CC1,> 4 mM (inactive)

row,SMILES,Kd
1,COC(CC(=O)O)c1nc2ccccc2s1 (stereo unspecified),> 4 mM (inactive)
2,CC(=O)NC1=C(N(C)C)C(=O)c2ccccc2C1=O,> 4 mM (inactive)
3,CCC(C)C(=O)O[C@@H]1C[C@@]2(C)[C@H](c3ccoc3)OC(=O)CC23OC2(C)OC34[C@H](OC(=O)C(C)C)[C@@]3(O)[C@@H](OC(=O)C5(C)OC5C)[C@@]5(C)C[C@]3(O)[C@@](C)([C@H]5CC(=O)OC)C14O2 (stereo partly specified),> 4 mM (inactive)
4,NC(=O)NC1NC(=O)NC1=O (stereo unspecified),> 4 mM (inactive)
5,CSc1ncc(CO)n1Cc1ccccc1,> 4 mM (inactive)
6,C[C@@H]1CC[C@@]2(OC1)OC1C(O)C3C4CC[C@H]5C[C@H](O[C@@H]6O[C@H](CO)[C@H](O[C@@H]7O[C@H](CO)[C@@H](O)[C@H](O[C@@H]8OC[C@@H](O)[C@H](O)[C@H]8O)[C@H]7O[C@@H]7O[C@H](CO)[C@H](O)[C@H](O[C@@H]8O[C@H](CO)[C@@H](O)[C@H](O)[C@H]8O)[C@H]7O)[C@H](O)[C@H]6O)[C@H](O)C[C@]5(C)C4CC[C@]3(C)C1[C@@H]2C (stereo partly specified),> 4 mM (inactive)
7,O=C(Nc1nccs1)c1cccnc1,> 4 mM (inactive)
8,Cc1nc2ccccc2c(=O)n1NC(=O)C1CCCCC1,> 4 mM (inactive)
9,CC1(C)CC2(C)N(N)C(=O)CN2C(=S)N1 (stereo unspecified),> 4 mM (inactive)
10,Cc1cc(NC(=O)Cc2cccs2)no1,> 4 mM (inactive)
11,CCOc1ccccc1C(=O)NC1=NCCS1,> 4 mM (inactive)
12,NC(=O)Cn1nc(-c2ccco2)ccc1=O,> 4 mM (inactive)
13,O=C(O)c1cc(F)cc2c1OCOC2,> 4 mM (inactive)
14,NC(=O)CCN1C(=O)c2ccccc2C1=O,> 4 mM (inactive)
15,C=C1C(=O)OC2CC1C(OC(C)=O)C/C(C)=C/CC/C(C)=C/CC[C@]2(C)O (stereo partly specified),> 4 mM (inactive)
16,Nc1ccc(Cc2ccc(N)cc2)cc1,> 4 mM (inactive)
17,Nc1c(S(=O)(=O)c2ccccc2)csc1C(=O)O,> 4 mM (inactive)
18,Nc1c(F)c(F)nc(F)c1F,> 4 mM (inactive)
19,CC(=O)Nc1ccc(NC(C)=O)c(C(F)(F)F)c1,> 4 mM (inactive)
20,Cc1ccc2[nH]cc(CCN)c2c1,> 4 mM (inactive)
21,CN(C)c1n[nH]c(=O)[nH]c1=O,> 4 mM (inactive)
22,CC1=CC(=O)NC2C=CC=CC12 (stereo unspecified),> 4 mM (inactive)
23,CC(C)CCn1cnc2c1c(=O)n(C)c(=O)n2C,> 4 mM (inactive)
